Data from patent publication US20160031909A1, “PORPHYRAZINE OPTICAL AND DUAL OPTICAL/ MR CONTRAST AND THERAPEUTIC AGENTS” (HOFFMAN/BARRETT, LLC, priority 2013, published 2016).

Legend:
Water solubility = format: physicochemical
Experimental: The pz platform is diol pz 285, which was prepared and activated for nucleophilic substitution by arenesulfonylation to produce bis-tosylate pz 286 as previously described (13). Subsequent nucleophilic substitution of pz 286 with excess sodium azide gave diazide pz 288, which was suitable for conjugation via cycloaddition reactions with the alkyne-functionalized Gd595. (Scheme 1). The use of catalytic copper(II) sulfate in this conjugation reaction partially metallates the pz core. To address this issue, pz 288 either was metallated with ZnCl2 prior to reaction with the alkyne or a stoichiometric amount of the […] catalyst was used to ensure that the pz core was completely cuprated. Standard cycloaddition reaction conditions were subsequently used to conjugate metallated pz diazides with Gd595 to produce Zn-Pz-Gd(III) and Cu-Pz-Gd(III) conjugates, which were isolated by preparative HPLC in 52% and 57% isolated yields, respectively. Trace amounts of Zn-Pz-Gd(III) were transmetallated to Cu-Pz-Gd(III), but this small amount was removed during purification.

[1] = HPLC analysis of urine collected from mice; format: in vivo, athymic nude mice
[2] = Relaxation time measurements (longitudinal relaxivity r1); format: physicochemical
Description: The efficiency of a contrast agent in reducing the longitudinal relaxation time of water protons is defined in terms as relaxivity (mM^−1 s^−1) (14). It has been predicted by Solomon-Bloembergen-Morgan theory that a slow molecule tumbling of an MRI agent causes an increase in rotational correlation time, Tr, which in turn results in increase in relaxivity (14, 15). A common approach to increase relaxivity by slowing down the molecular tumbling is to attach Gd(III) complexes to a macromolecule through rigid linkages (12,16). The relaxivity of the monomeric DOTA-Gd(III) (DOTA is 1,4,7,10-tetraazacyclododecane-N,N,N″,N″-tetraacetic acid) used in the clinic is shown for comparison (17). […] Both the Zn-Pz-Gd(III) and Cu-Pz-Gd(III) had higher longitudinal relaxivity than DOTAGd(III).
Solutions of M-Pz-Gd(III) (M=Zn, Cu) conjugates were dissolved in 500 μL of filtered, deionized H20 (18.2 MΩ·cm) for T1 acquisition. Relaxation times were measured on a Bruker mq60 NMRanalyzer equipped with Minispec v2.51 Rev.00/NT software (Bruker Biospin, Billerica, Mass., USA) operating at 1.41 T (60 MHz) and 37° C. T1 relaxation times were measured using an inversion recovery pulse sequence (T1—ir_mb) using the following parameters: 4 scans per point, 10 data points for fitting, mono-exponential curve fitting, phase cycling, 10 ms first pulse separation, and a recycle delay and final pulse separation≧5 T1. The gadolinium concentrations of each solution were determined using ICP-MS. The inverse of the longitudinal relaxation time (1/ T1, s^−1) was plotted against gadolinium concentration (mM) and fitted to a straight line with an R^2>0.99. The slope of the fitted line was recorded as the relaxivity, r1.

MDA-MB-231 cells = test: In vitro cellular uptake, Gd(III) content by ICP-MS; format: cell-based; settings: MDA-MB-231, 24 hours, compared with equivalent DOTA-Gd(III)
Experimental: Breast tumor cells (MDA-MB-231) were treated with M-Pz-Gd(III) complexes at varying concentrations for 24 hours, washed, digested in acid, and Gd(III) content was measured by ICP-M S (FIG. 1). An M-Pz-Gd(III) dose of 50 μM corresponds to an overall Gd(III) dose of 100 μM because two Gd(III) ions are present per molecule. Cells also were treated with an equivalent amount of DOTA-Gd(III), an agent known not to cross cell membranes.
After cell harvesting, an aliquot of the cell suspensions was mixed with Guava ViaCount reagent and allowed to stain at room temperature for at least 5.0 minutes (no longer than 20 minutes). Stained samples were vortexed for 10 seconds and counted. Percent cell viability was determined via manual analysis using a Guava EasyCyte Mini Personal Cell Analyzer (PCA) and ViaCount software module. For each sample, 1000 events were acquired with dilution factors that were determined based upon optimum machine performance (about 25-70 cells/μL).
Quantification of Gd was accomplished using ICP-MS of acid digested samples. Solution samples were digested in ACS reagent grade nitric acid (70%, Sigma, St. Louis, Mo., USA) and incubated in a water bath at 70° C. for at least 2 hours to allow for complete sample digestion. […]

[3] = Octanol-water partition coefficients by ICP-MS; format: physicochemical; settings: 1:1 water:1-octanol, 48 hours, Gd by ICP-MS
Experimental: Octanol-water partition coefficients (log P) were measured by ICP-MS to determine the hydrophilicity of the Pz-Gd(III) conjugates (4d, 18). The hydrophilicity of a molecule dictates cellular permeability where a balance in amphiphilicity is desired for ease of aqueous administration and maximum cellular uptake (19). Cu-Pz-Gd(III) is slightly more hydrophobic than Zn-Pz-Gd(III) and both conjugates are more hydrophobic than DOTA-Gd(III).
DOTA-Gd(I I I), Zn-Pz-Gd(III), and Cu-Pz-Gd(III) (0.5 mg) were dissolved in 1 mL of a 1:1 mixture of water:1-octanol, respectively. After shaking for 30 seconds, these tubes were placed on a rotator for gentle mixing to equilibrate for 48 hours. Gd(III) concentration in each layer was determined by ICP-MS. Partition coefficients were calculated from the equation log P=log(Co/Cw), where log P is the logarithm of the partition coefficient, Co is the concentration of Gd in the 1-octanol layer, and Cw is the concentration of Gd in the water layer.

## Cu[Pz(C19H28N8O7Gd)2]. Pz=18,21-bis(2-(1H-1,2,3-triazole-4-yl) ethoxy)-tris-[1,4-dioxino[g,l,q](2R,3R)-2,3-dimethoxy-2,3-dimethyll 25H,27H-benzo[b]porphyrazine; C19H28N8O7Gd=N-methyl-2-aminoacetamide-4,7,10-tris(carboxymethyl)-1,4,7,10-tetraazacyclododecylgadolinium(III)) [Cu-Pz-Gd(III)]
Water solubility
  water solubility: freely water soluble
[1]
  form cleared in urine: cleared intact
[2]; compared with clinically-used monomeric DOTA-Gd(III)
  solution-phase ionic relaxivity relative to DOTA-Gd(III): about four times greater
[2]; per Gd(III), water, 1.41 T (60 MHz), 37° C.
  Ionic r1: 11.5 mM^−1 S^−1
[2]; per molecule (2 Gd(III)), water, 1.41 T (60 MHz), 37° C.
  Molecular r1: 23.0 mM^−1 S^−1
[2]; text of b56, unit inferred
  solution phase molecular relaxivity (r1): 23 mM⁻¹ s⁻¹
MDA-MB-231 cells
  Cellular uptake, Gd(III) content per cell: two-fold increase
[3]
  log P: −2.41
